From ChEMBL document CHEMBL1158110, “Chaetopyranin, a benzaldehyde derivative, and other related metabolites from Chaetomium globosum, an endophytic fungus derived from the marine red alga Polysiphonia urceolata” (J Nat Prod, 2006)
Values after ≈ are worked out from the molar mass of the structure shown.

How the values were obtained:
[1] = tested on: Radical scavenging activity; experiment: Antioxidant activity assessed as DPPH free radical scavenging activity; assay type: functional
A549 = experiment: Cytotoxicity against human A549 cells; assay type: functional, cell-based
HMEC = experiment: Cytotoxicity against HMEC; assay type: cell-based; settings: Homo sapiens
SMMC-7721 = experiment: Cytotoxicity against human SMMC7721 cells; assay type: functional, cell-based

| SMILES | IC50 [1] [µg/mL] | IC50 (A549) [µg/mL] | IC50 (HMEC) [µg/mL] | IC50 (SMMC-7721) [µg/mL] |
| --- | --- | --- | --- | --- |
| CCC/C=C/c1cc2c(C=O)c(O)c(CC=C(C)C)cc2o1 | 88 (≈ 295 µM) | – | – | – |
| CC(C)=CCc1cc2c(c(C=O)c1O)CCC(/C=C/C(C)O)O2 (configuration not stated) [CHAETOPYRANIN] | 35 (≈ 111 µM) | 39.1 (≈ 124 µM) | 15.4 (≈ 48.7 µM) | 28.5 (≈ 90.1 µM) |
| C/C=C/CCCCc1c(O)cc(CC=C(C)C)c(O)c1C=O [ISOTETRAHYDROAUROGLAUCIN] | 26 (≈ 86 µM) | – | – | – |
| COc1cc(O)c2c(c1)C(=O)c1c(O)c(C)cc(O)c1C2=O [PARIETIN] | 62 (≈ 206 µM) | – | – | – |
